For the test, the system named is T-lymphocytes. As to the kind of experiment: Blastogenesis of T-cells, 3H-thymidine incorporation. The class given is cell-based. The settings on record: for 3H-thymidine incorporation/well / Stimulation Index: PHA 5 μg/ml. The protocol: Dilutions of PHA were prepared from 1:100 to 1:1000 and the dilutions were added to mycro-plate system lymphocyte cultures. Phytohemaglutinin, Pockeweed antigen and A Concanavalin were added to identified wells. After the culture period, T-lymphocytes proliferation was determined by radioactive tymidine uptake assay.
The present study compared the mitogenic effect of hyperimmune whole egg and a partially purified fraction of the hyperimmune egg (less then 3K fraction described in Example 2) against control medium alone. The hyperimmune whole egg was tested at varying concentrations that include 0.24, 0.98, 3.9, 15.6, 62.5 and 250 μg/ml. The purified less than 3K fraction from the hyperimmune egg was tested at 0.1, 0.2, 0.7, 2.0, 6.1, 18.4, 55.3 and 166.0 μg/ml concentrations. The Stimulating Index for hyperimmune whole egg, in accordance with the above concentrations, was 0.9, 0.8, 0.9, 0.9, 0.8, and 0.8 respectively, which corresponds, in the test conditions, to a cell population increase of 90, 80, 90, 90, 80 and 80% respectively. The Stimulating Index for the 3K purified fraction, in accordance with the above concentrations, was 1.1, 1.2, 1.5, 1.7, 1.4, 1.3, 1.0 and 1.2 respectively (see Table 2), which corresponds, in the test conditions, to a cell population increasing of 110, 120, 150, 170, 140, 130, 100 and 120% respectively.

[1] abbreviates: single wells No. 1-6, first study.
Where [2] appears, read: single wells No. 1-6, repeated study.

Several values for one entry are separate records, joined by “and”; a condition that tells them apart may be missing. Equal entries are not always repeated.

On to Phytohemaglutinin [PHA], for which the 3H-thymidine incorporation/well is, setting by setting: (AVE of 6 wells, first study) 108028 cpm; (AVE of 6 wells, repeated study) 109901 cpm; under setting [1], 98898 cpm and 121212 cpm and 97149 cpm and 118218 cpm and 101241 cpm and 111452 cpm; under setting [2], 110201 cpm and 121811 cpm and 97453 cpm and 112934 cpm and 102484 cpm and 114522 cpm. Also, the “Stimulation Index” value runs as follows: (AVE of 6 wells, first study) 195.8; (AVE of 6 wells, repeated study) 292.2; under setting [1], 179.2 and 219.7 and 176.0 and 214.2 and 183.5 and 202.0; under setting [2], 293.0 and 323.8 and 259.1 and 300.2 and 272.4 and 304.4. The T-lymphocytes proliferation result (PHA dilutions 1:100 to 1:1000, radioactive tymidine uptake) is “increased the proliferation of free mitogen lymphocytes intensively”.
